This is an account of results in PMC6009898 (Journal of Enzyme Inhibition and Medicinal Chemistry, 2017).

Like-named read-outs stand apart in the source and are kept apart here.

For data set [1], the target named is T1, Aβ (1–42) (Homo sapiens, UniProt P05067). As to the kind of experiment: Inhibition of Cu^2+-induced Aβ (1–42) aggregation (ThT assay). It counts as biochemical. To be noted: Aβ 25 μM, compound 50 μM, Cu^2+ 25 μM, 37 °C, 24 h; read-out: Inhibition of Cu^2+-induced Aβ aggregation. The procedure: The mixture of the peptide (10 μL, 25 μM, final concentration) with or without copper (10 μL, 25 μM, final concentration) and the test compound (10 μL, 50 μM, final concentration) were incubated at 37 °C for 24 h. The 20 μL of the sample was diluted to a final volume of 200 μL with […] glycine–NaOH buffer (pH 8.0) containing ThT (5 μM). The detection method was the same as that of self-induced Aβ aggregation experiment.
T1 sequence (P05067 672-713): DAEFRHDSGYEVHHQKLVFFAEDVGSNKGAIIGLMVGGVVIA

Data set [2] has as its target T2, BuChE (from equine serum) (Equus caballus, UniProt P81908).
T2 construct: butyrylcholinesterase (BuChE, E.C. 3.1.1.8) from equine serum and human serum; purchased Sigma-Aldrich (St. Louis, MO); host or cells: equine serum
As to the kind of experiment: biochemical. It counts as biochemical. Particulars: for IC50: means ± SD of three experiments.

The next data set concerns the target T3, AChE (from electric eel) (Electrophorus electricus, UniProt O42275).
T3 construct: Acetylcholinesterase (E.C. 3.1.1.7) from electric eel and human erythrocytes; purchased Sigma-Aldrich (St. Louis, MO); host or cells: electric eel (natural source)
As to the kind of experiment: biochemical. To be noted: means ± SD of three experiments; read-out: IC50 eeAChE.

The target in data set [3] is T1, Aβ (1–42). The data set can be described thus: Inhibition of Aβ (1–42) self-induced aggregation (Thioflavin T assay). To be noted: read-out: Aβ (1–42) aggregation inhibition (%).
The next data set concerns the target T4, human AChE (Homo sapiens, UniProt P22303).
T4 construct: Acetylcholinesterase (E.C. 3.1.1.7) from electric eel and human erythrocytes; purchased Sigma-Aldrich (St. Louis, MO); host or cells: human erythrocytes
As to the kind of experiment: biochemical. To be noted: means ± SD of three experiments; read-out: IC50 hAChE.

The nature of the next data set: in vitro. Further details: Papp at 16 h: dose or concentration left out as unconfirmed. To be noted: PAMPA. The procedure:
Commercial drugs were purchased from Sigma (St. Louis, MO) and Alfa Aesar (Haverhill, MA). The porcine brain lipid (PBL) was obtained from Avanti Polar Lipids (Alabaster, AL). The donor microplate (PVDF membrane, pore size […]) and the acceptor microplate were both from Millipore (Darmstadt, Germany). The 96-well UV plate (COSTAR^@) was from Corning Incorporated (Harrodsburg, KY). The acceptor 96-well microplate was filled with 300 μL of PBS/EtOH (7:3), and the filter membrane was impregnated with 4 μL of PBL in dodecane (20 mg/mL). […] The […] was carefully placed on the donor plate to form a sandwich, which was left undisturbed for 16 h at 25 °C. After incubation, the donor plate was carefully removed and the concentration of compound in the acceptor wells was determined using an UV plate reader (Flexstation^@ 3). Every sample was analyzed at five wavelengths, in four wells, in at least three independent runs, and the results are given as the mean ± SD. In each experiment, nine quality control standards of known BBB permeability were included to validate the analysis set.

The subject of the next data set is AChE. To be noted: cited from earlier work.

T4 sequence (P22303 other isoform, or with tags, fused parts or gaps): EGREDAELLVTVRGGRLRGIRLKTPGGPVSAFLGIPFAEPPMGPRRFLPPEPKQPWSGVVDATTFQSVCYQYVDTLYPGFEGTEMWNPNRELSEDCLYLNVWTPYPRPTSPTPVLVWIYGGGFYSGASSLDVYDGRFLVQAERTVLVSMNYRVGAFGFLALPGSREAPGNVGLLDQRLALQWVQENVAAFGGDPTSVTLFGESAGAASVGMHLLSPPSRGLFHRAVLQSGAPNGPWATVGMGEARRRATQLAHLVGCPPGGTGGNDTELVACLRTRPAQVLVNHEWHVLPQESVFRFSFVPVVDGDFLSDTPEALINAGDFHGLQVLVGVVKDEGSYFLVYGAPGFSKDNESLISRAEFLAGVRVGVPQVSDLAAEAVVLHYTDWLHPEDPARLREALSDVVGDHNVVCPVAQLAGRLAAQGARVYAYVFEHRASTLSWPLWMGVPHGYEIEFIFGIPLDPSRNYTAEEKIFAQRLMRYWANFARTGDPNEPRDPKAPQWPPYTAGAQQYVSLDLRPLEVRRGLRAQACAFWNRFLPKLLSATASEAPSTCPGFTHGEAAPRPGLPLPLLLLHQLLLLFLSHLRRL
T3 sequence (O42275 24-633): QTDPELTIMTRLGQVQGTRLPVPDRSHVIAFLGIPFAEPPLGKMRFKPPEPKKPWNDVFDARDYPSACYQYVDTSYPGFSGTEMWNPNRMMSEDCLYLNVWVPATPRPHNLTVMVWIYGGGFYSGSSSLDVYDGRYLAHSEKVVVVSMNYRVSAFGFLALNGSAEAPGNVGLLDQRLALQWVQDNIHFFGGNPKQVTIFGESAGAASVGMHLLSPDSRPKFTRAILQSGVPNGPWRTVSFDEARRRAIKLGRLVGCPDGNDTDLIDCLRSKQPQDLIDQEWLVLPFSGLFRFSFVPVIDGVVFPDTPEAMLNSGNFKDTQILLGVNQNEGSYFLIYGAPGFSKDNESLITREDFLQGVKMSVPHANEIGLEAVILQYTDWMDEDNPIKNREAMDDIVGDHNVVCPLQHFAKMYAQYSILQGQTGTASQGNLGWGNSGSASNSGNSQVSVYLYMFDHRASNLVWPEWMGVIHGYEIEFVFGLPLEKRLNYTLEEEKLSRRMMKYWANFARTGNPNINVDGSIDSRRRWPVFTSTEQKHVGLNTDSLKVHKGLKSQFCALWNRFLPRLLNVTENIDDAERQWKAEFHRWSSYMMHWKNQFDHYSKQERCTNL
T2 sequence (P81908 whole entry): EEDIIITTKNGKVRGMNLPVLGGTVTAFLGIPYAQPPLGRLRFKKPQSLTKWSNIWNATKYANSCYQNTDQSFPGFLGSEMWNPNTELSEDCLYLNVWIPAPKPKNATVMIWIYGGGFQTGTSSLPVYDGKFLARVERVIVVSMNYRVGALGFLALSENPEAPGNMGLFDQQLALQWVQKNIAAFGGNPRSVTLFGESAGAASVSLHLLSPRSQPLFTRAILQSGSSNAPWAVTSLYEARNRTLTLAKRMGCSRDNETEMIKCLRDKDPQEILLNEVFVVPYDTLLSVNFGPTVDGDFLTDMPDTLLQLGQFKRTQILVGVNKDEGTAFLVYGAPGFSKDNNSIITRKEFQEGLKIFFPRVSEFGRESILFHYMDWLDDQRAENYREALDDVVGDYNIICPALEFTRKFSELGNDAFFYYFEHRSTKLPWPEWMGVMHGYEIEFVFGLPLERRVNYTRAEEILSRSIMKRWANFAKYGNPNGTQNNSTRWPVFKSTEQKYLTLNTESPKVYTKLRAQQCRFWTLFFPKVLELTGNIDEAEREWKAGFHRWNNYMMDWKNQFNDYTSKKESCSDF

The term inhibition denotes the share of the control response that was lost under treatment. For `Oc1c(I)cc(Cl)c2cccnc12` [CQ, Clioquinol, reference compound], the inhibition at 50 µM at Aβ (1–42) [1] amounted to 60.2%.
One may read the IC50 as the concentration that inhibits the measured activity by half. On to `O=C(O)/C=C/c1ccccc1` [Cinnamic acid, reference compound], for which the IC50 in data set [2] (read-out: IC50 eqBuChE) was > 100 µM.
For `O=C(C=Cc1ccccc1)Nc1cc[n+](Cc2ccccc2)cc1.[Br-]` [Compound 5a, 1-Benzyl-4-cinnamamidopyridin-1-ium bromide], the “ABTS assay (trolox equiv)” value is “N^c (N means <0.05)”. Besides, the IC50 at AChE (from electric eel) came to 0.0541 ± 0.0082 µM. In data set [2] (IC50 eqBuChE), the IC50 was 6.3 ± 0.6 µM. At Aβ (1–42) [3], the inhibition at 20 µM turned out to be 46.3 ± 1.6%.
For `Cc1cccc(C[n+]2ccc(NC(=O)C=Cc3ccccc3)cc2)c1.[Br-]` [Compound 5b, 4-Cinnamamido-1-(3-methylbenzyl) pyridin-1-ium bromide] the same measures were “N (N means <0.05)”, 0.103 ± 0.0096 µM, 8.1 ± 1.3 µM and 48.5 ± 1.8%.
In the case of `Cc1ccc(C[n+]2ccc(NC(=O)C=Cc3ccccc3)cc2)cc1.[Br-]` [Compound 5c, 4-Cinnamamido-1-(4-methylbenzyl) pyridin-1-ium bromide], the “ABTS assay (trolox equiv)” value is listed as “N (N means <0.05)”. For the same compound, the IC50 at AChE (from electric eel) amounted to 1.2638 ± 0.0012 µM. Also, in data set [2] (IC50 eqBuChE), 25 ± 0.7 µM corresponded to half-maximal inhibition (IC50). In addition, the inhibition at 20 µM at Aβ (1–42) [3] amounted to 55.1 ± 1.5%.
As to `O=C(C=Cc1ccccc1)Nc1cc[n+](Cc2cccc(F)c2)cc1.[Br-]` [Compound 5d, 4-Cinnamamido-1-(3-fluorobenzyl) pyridin-1-ium bromide], the “ABTS assay (trolox equiv)” value is recorded as “N (N means <0.05)”. For the same compound, on AChE (from electric eel), the IC50 came out at 0.0935 ± 0.0077 µM. 7.4 ± 0.5 µM corresponded to half-maximal inhibition in data set [2] (IC50 eqBuChE) (IC50). For the same compound, the inhibition at 20 µM on Aβ (1–42) [3] is 53.6 ± 2.3%.
For `O=C(C=Cc1ccccc1)Nc1cc[n+](Cc2ccc(F)cc2)cc1.[Br-]` [Compound 5e, 4-Cinnamamido-1-(4-fluorobenzyl) pyridin-1-ium bromide] the same measures were “N (N means <0.05)”, 0.0908 ± 0.0092 µM, 10 ± 0.4 µM and 52.8 ± 1.8%.
For `O=C(C=Cc1ccccc1)Nc1cc[n+](Cc2cccc(Br)c2)cc1.[Br-]` [Compound 5f, 1-(3-Bromobenzyl)-4-cinnamamidopyridin-1-ium bromide], in that order: “N (N means <0.05)”, 0.154 ± 0.0026 µM, 2.5 ± 0.3 µM and 48.8 ± 2.1%.
For `O=C(C=Cc1ccccc1)Nc1cc[n+](Cc2ccc(Br)cc2)cc1.[Br-]` [Compound 5g, 1-(4-Bromobenzyl)-4-cinnamamidopyridin-1-ium bromide], in that order: “N (N means <0.05)”, 1.451 ± 0.0043 µM, 2.1 ± 0.8 µM and 57.2 ± 1.1%.
`COc1ccc(/C=C/C(=O)Nc2cc[n+](Cc3ccccc3)cc2)cc1OC.[Br-]` [Compound 5h, (E)-1-benzyl-4-(3-(3,4-dimethoxyphenyl)acrylamido) pyridin-1-ium bromide]: the “ABTS assay (trolox equiv)” value was “N (N means <0.05)”. Moreover, on AChE (from electric eel), the IC50 came to 0.135 ± 0.0048 µM. The compound also came in with an IC50 in data set [2] (IC50 eqBuChE) of 4.5 ± 0.7 µM. In addition, on Aβ (1–42) [3], the inhibition at 20 µM was 55.7 ± 3.2%.
For `COc1ccc(/C=C/C(=O)Nc2cc[n+](Cc3cccc(C)c3)cc2)cc1OC.[Br-]` [Compound 5i, (E)-4-(3-(3,4-dimethoxyphenyl)acrylamido)-1-(3-methylbenzyl) pyridin-1-ium bromide], the “ABTS assay (trolox equiv)” value is “N (N means <0.05)”. The compound also displayed an IC50 in data set [2] (IC50 eqBuChE) of 2.7 ± 0.8 µM. In addition, the IC50 at human AChE was 0.0437 ± 0.0005 µM. Moreover, at Aβ (1–42) [3], the inhibition at 20 µM was found to be 53.9 ± 0.9%.
With `COc1ccc(/C=C/C(=O)Nc2cc[n+](Cc3ccc(C)cc3)cc2)cc1OC.[Br-]` [Compound 5j, (E)-4-(3-(3,4-dimethoxyphenyl)acrylamido)-1-(4-methylbenzyl) pyridin-1-ium bromide], the “ABTS assay (trolox equiv)” value is listed as “N (N means <0.05)”. On AChE (from electric eel), the IC50 was 0.0907 ± 0.0032 µM. Further, the half-maximal inhibitory concentration (IC50) in data set [2] (IC50 eqBuChE) is 3.8 ± 0.9 µM. Besides, the IC50 on human AChE worked out at 0.0965 ± 0.0028 µM. The inhibition at 20 µM on Aβ (1–42) [3] was 63.4 ± 2.8%.
For `COc1ccc(/C=C/C(=O)Nc2cc[n+](Cc3cccc(F)c3)cc2)cc1OC.[Br-]` [Compound 5k, (E)-4-(3-(3,4-dimethoxyphenyl)acrylamido)-1-(3-fluorobenzyl) pyridin-1-ium bromide] the same measures were “N (N means <0.05)”, 0.0206 ± 0.001 µM, 3.1 ± 0.5 µM, 0.0192 ± 0.0016 µM and 65.6 ± 2.3%.
For `COc1ccc(/C=C/C(=O)Nc2cc[n+](Cc3cccc(Br)c3)cc2)cc1OC.[Br-]` [Compound 5m, (E)-1-(3-bromobenzyl)-4-(3-(3,4-dimethoxyphenyl)acrylamido) pyridin-1-ium bromide] the same measures were “N (N means <0.05)”, 0.0926 ± 0.009 µM, 2.5 ± 0.6 µM, 0.0794 ± 0.0015 µM and 62.8 ± 1.4%.
Consider `COc1ccc(/C=C/C(=O)Nc2cc[n+](Cc3ccc(Br)cc3)cc2)cc1OC.[Br-]` [Compound 5n, (E)-1-(4-bromobenzyl)-4-(3-(3,4-dimethoxyphenyl)acrylamido) pyridin-1-ium bromide], for which the “ABTS assay (trolox equiv)” value is “N (N means <0.05)”. Besides, the IC50 at AChE (from electric eel) came out at 0.0503 ± 0.0083 µM. The same compound gave an IC50 in data set [2] (IC50 eqBuChE) of 1.9 ± 0.5 µM. Also, in data set [2] (eqBuChE IC50 compared with donepezil), the “Times more potent against BuChE than donepezil” value is reported as 2.3 times. Further, on human AChE, the IC50 amounted to 0.0511 ± 0.0048 µM. Further, the inhibition at 20 µM at Aβ (1–42) [3] came out at 66.3 ± 2.9%.
`COc1cc(/C=C/C(=O)CC(=O)/C=C/c2ccc(O)c(OC)c2)ccc1O` [Curcumin, reference compound]: the inhibition at 20 µM at Aβ (1–42) [3] was 54.6 ± 2.6%.
A word on the Papp: it is the rate of passage across a membrane or cell layer, normalised by area and donor concentration. `CC(=O)[C@H]1CC[C@H]2[C@@H]3CCC4=CC(=O)CC[C@]4(C)[C@H]3CC[C@]12C` [Progesterone, reference compound] returned a Papp at 16 h in “in vitro” of 5.34 ×10⁻⁶ cm/s.
For the compound `[Br-].c1ccc(C[n+]2ccccc2)cc1` [benzyl pyridinium bromide], in the data set on AChE, the AChE inhibition result is reported as “micromolar range”.
